The nature of data set [1]: Rearrangement half-life at pH of 7.8 was determined. As to conditions: pH 7.8. It counts as ADME.
Data set [2] in a line: The compound was tested for inhibition of Bacillus subtilis chorismate mutase (BcCM); weak competitive inhibitor.
Data set [3] in a line: Rearrangement half-life at pH of 7.4 was determined. It counts as ADME. As to conditions: pH 7.4.

By half-life is commonly meant the time needed for the level to fall by half in the phase considered. High values mean slow decline, low ones rapid decline. Usually Ki stands for a measure of affinity in units of concentration, obtained from inhibition or displacement.

Take `C=C(O[C@@H]1C=CC=C[C@H]1O)C(=O)[O-].[Na+]`: the results for the half-life in data set [1] and in data set [3] were 3.1 h and 1.7 h, respectively. This compound gave an inhibition constant (Ki) in data set [2] of 500 µM.

Values taken from ChEMBL document CHEMBL1130333, “On the mechanism of chorismate mutases: Revisiting structural requirements for catalysis” (Bioorg Med Chem Lett, 1997).
